We go through four compounds from ChEMBL document CHEMBL5385948, “Glucose Uptake-Stimulating Metabolites from Aerial Parts of Centaurea sicula” (J Nat Prod, 2024).

The structures appear in SMILES notation. Active and inactive are the calls of the source. The calls are words filed in the database; no cut-off is given here.

For assay [1], the system named is HEK293. Nature of the assay: Induction of glucose uptake in HEK293 cells assessed as increase in 2-NBDG uptake at 3 uM incubated for 48 hrs followed by treated with 2-DG by fluorescence assay. Type of assay: functional, cell-based. The following applies: Homo sapiens.
Assay [2] relates to HEK293. The experiment in a line: Induction of glucose uptake in HEK293 cells assessed as increase in 2-NBDG uptake at 3 uM incubated for 48 hrs followed by treated with 2-DG in presence of EDTA by fluorescence assay. The class given is functional, cell-based. The following applies: Homo sapiens.

On to `CC1(C)C(=O)O[C@]2(C)C=C1C[C@H](O)C2`, for which the result in the assay on HEK293 [1] and in the assay on HEK293 [2] was Active.

Turning to `COc1cc([C@@H]2OC[C@H]3C(=O)OC[C@H]32)ccc1O`, the outcome with HEK293 [1] was Active. In addition, the result with HEK293 [2] was inactive.

Take `C/C1=C\CC/C(CO)=C/[C@@H](O)[C@H]2[C@H](C1)OC(=O)[C@H]2C`: the result with HEK293 [1] was Active. The outcome in the assay with HEK293 [2] was inactive.

`C=C(C(=O)O[C@H]1C/C(C)=C/CC/C(CO)=C/[C@H]2OC(=O)[C@@H](C)[C@H]12)[C@@H](O)CO`: the outcome with HEK293 [1] and with HEK293 [2] was Active.
